According to US8518883B2, “Method of reducing deleterious effects of ischemia by administration of a thrombopoietin receptor ligand” (MCW Research Foundation, Inc., priority 2006, dated 2013):
Entries after “also recorded” stand apart in the source; their conditions may differ.

Tests used:
[1] = system: in vitro rat hearts; test: Isolated perfused (Langendorff) rat heart, 25 min global ischemia and 180 min reperfusion: hemodynamics, infarct size, recovery of LVDP
Experimental: The study was directed to determining whether Tpo (0.01-10.0 ng/ml) confers immediate cardioprotection in rat hearts and the contribution of potassium channels to the underlying mechanism. Hearts from normoxic 8 week old Sprague Dawley rats (n=8/group) were isolated and perfused in the Langendorff mode. Hemodynamic function was recorded under steady-state conditions prior to 25 minutes global no flow ischemia and 180 minutes reperfusion.
Isolated heart perfusion. Isolated rat hearts were perfused with bicarbonate buffer at constant pressure in a retrograde manner and instrumented as described in Baker, et al., Am. J. Physiol. Heart Circulat. Physiol. 278:1395-1400, 2000 potassium channel blockers were added to this perfusate as needed. A 3-way tap, located immediately above the site of cannulation, allowed the entire perfusate to be diverted away from the heart to produce global, no-flow ischemia. Reperfusion was achieved by repositioning of the tap to allow perfusate to be delivered to the heart. Left ventricular function was monitored continuously throughout each experiment as described in Baker, et al., supra, 2000. End-diastolic pressure was initially set to 3 mmHg for 2 minutes. The balloon was then progressively inflated with a microsyringe to set end-diastolic pressures to 8 mmHg for the left ventricle, with developed pressure and heart rate recorded during steady-state conditions. Coronary flow rate was measured throughout the experiment by timed collections of the coronary effluent from the right side of the heart into a graduated cylinder. Coronary flow rate was expressed as milliliters per minute per gram wet weight.
Resistance to myocardial ischemia. Hearts from adult rats were perfused with bicarbonate buffer, and biventricular function was monitored continuously throughout each experiment as described in Baker, et al., supra, 2000. For concentration response studies, hearts were then perfused with Tpo (0.01-10.0 ng/ml) for 15 minutes prior to 25 minutes ischemia and 180 minutes reperfusion. For mechanism studies with potassium channel blockers, hearts were perfused with drugs for 15 minutes alone followed by 15 minutes in combination with Tpo prior to ischemia. Hearts perfused with potassium channel blockers alone in the absence of Tpo for 30 minutes prior to ischemia served as untreated controls for these studies. Recovery of post-ischemic left ventricular developed pressure was expressed as a percentage of its pre-drug, pre-ischemic value.
Assessment of ventricular function. Left ventricular function was monitored continuously throughout each experiment as described in Baker, et al., supra, 2000. Recovery of left ventricular pressure following ischemia was used to assess resistance to ischemia.
Measurement of infarct size/area at risk at 3 hours reperfusion were used to assess resistance to myocardial ischemia. For characterization of infarction size, hearts were perfused with 10 ml bicarbonate buffer containing triphenyltetrazolium chloride (SIGMA) at 37° C.
The heart was sectioned in 2 mm segments from apex to atrio-ventricular groove in a transverse fashion. Each segment was recorded and placed in formalin. After twenty-four (24) hours, the specimen was digitally photographed in a camera mount to normalize specimen-to-lens distance. Each photograph was then appended to Adobe Photoshop (Adobe™) to measure pixel density of infarcted versus non-infarcted areas. The percentage of infarction of each slide was expressed as a percentage of the entire area of the heart.
Hearts from male Sprague Dawley rats at 8 weeks of age were isolated and perfused with Tpo at 0.01, 0.1, 1.0, and 10 ng/ml for 15 minutes prior to 25 minutes global ischemia and 180 minutes reperfusion (FIG. 2). Tpo (1.0 ng/ml) reduced coronary flow rate prior to ischemia from 6±1 ml/min/g to 5±1 ml/min/g, increased left ventricular developed pressure from 119±15 mmHg to 151±19 mmHg and decreased heart rate from 240±34 beats/minute to 228±17 beats/minute. […]

[2] = system: rats; test: Platelet count and hematocrit after single Tpo treatment; assay type: in vivo, rat
Experimental: Prior to treatment, platelet counts in untreated rats were 850±96 10^3/ul, and the hematocrit in untreated rats was 43.8±1.8%.
FIG. 13A/B is a plot of additional data (mean±standard deviation, n+6 per group) that evaluated a single dose of Tpo (1.0 μg/kg i.v.) on platelet count and hematocrit. There was no effect.

[3] = system: in vitro rat hearts; test: TUNEL assay of apoptosis in isolated rat hearts after global ischemia/reperfusion
Experimental: Hearts from Sprague Dawley rats perfused continuously with bicarbonate buffer for 245 minutes served as non-ischemic controls (FIG. 5). Hearts aerobically perfused for 35 minutes and subjected to 25 minutes of global ischemia followed by 3 hours reperfusion served as the ischemia-reperfusion control group. Hearts aerobically perfused with buffer for 20 minutes and then perfused with Tpo (1 ng/ml) for 15 minutes before ischemia and reperfusion served as a Tpo-treated group. Each heart at the end of perfusion was snap frozen in liquid nitrogen. Four frozen sections (10 micron thick) from each heart (72 sections total) were processed for TUNEL assay according to the manufacturers protocol (Roche). The slides were examined under fluorescent microscope (400× magnification, excitation 490 nm, and emission 515 nm). Twenty-two random high-power fields from each heart sample were chosen and blindly quantified. TUNEL results are presented as % (positive nuclei per field/total nuclei per field×100%).

[4] = POST DRUG, Tpo 0.01 ng/ml for 15 min
[5] = POST DRUG, Tpo 0.1 ng/ml for 15 min
[6] = POST DRUG, Tpo 1.0 ng/ml for 15 min
[7] = POST DRUG, Tpo 10.0 ng/ml for 15 min
[8] = REPERFUSION, Tpo 0.01 ng/ml, 25 min global ischemia, 180 min reperfusion
[9] = REPERFUSION, Tpo 0.1 ng/ml, 25 min global ischemia, 180 min reperfusion
[10] = REPERFUSION, Tpo 1.0 ng/ml, 25 min global ischemia, 180 min reperfusion
[11] = REPERFUSION, Tpo 10.0 ng/ml, 25 min global ischemia, 180 min reperfusion
[12] = Tpo 0.01-10.0 ng/ml for 15 min prior to 25 min global ischemia, 180 min reperfusion
[13] = single Tpo 0.05 μg/kg i.v., 14 day follow up
[14] = single Tpo 1.0 μg/kg i.v., 28 day follow up

## Thrombopoietin [Tpo]
[1]; 'U' shaped concentration-dependent, Tpo 0.01-10.0 ng/ml
  Infarct size following ischemia and reperfusion: reduced
[1]; [4]
  Coronary flow rate: 5 ± 1 mL/min/g
  Heart rate: 202 ± 16 beats/min
  Left ventricle developed pressure: 156 ± 13 mmHg
[1]; [5]
  Coronary flow rate: 5 ± 1 mL/min/g
  Heart rate: 233 ± 12 beats/min
  Left ventricle developed pressure: 158 ± 13 mmHg
[1]; [6]
  Coronary flow rate: 5 ± 1 mL/min/g
  Heart rate: 228±17 beats/min
  Left ventricle developed pressure: 151±19 mmHg
[1]; [7]
  Coronary flow rate: 6 ± 1 mL/min/g
  Heart rate: 220 ± 10 beats/min
  Left ventricle developed pressure: 172 ± 26 mmHg
[1]; PRE DRUG, Tpo 0.01 ng/ml group
  Coronary flow rate: 6 ± 1 mL/min/g
  Heart rate: 225 ± 31 beats/min
  Left ventricle developed pressure: 130 ± 13 mmHg
[1]; PRE DRUG, Tpo 0.1 ng/ml group
  Coronary flow rate: 5 ± 1 mL/min/g
  Heart rate: 228 ± 17 beats/min
  Left ventricle developed pressure: 120 ± 15 mmHg
[1]; PRE DRUG, Tpo 1.0 ng/ml group
  Coronary flow rate: 6 ± 1 mL/min/g
  Heart rate: 240±34 beats/min
  Left ventricle developed pressure: 119±15 mmHg
[1]; PRE DRUG, Tpo 10.0 ng/ml group
  Coronary flow rate: 6 ± 1 mL/min/g
  Heart rate: 226 ± 29 beats/min
  Left ventricle developed pressure: 134 ± 13 mmHg
[1]; [8]
  Coronary flow rate: 3 ± 1 mL/min/g
  Heart rate: 184 ± 31 beats/min
  Left ventricle developed pressure: 52 ± 9 mmHg
[1]; [9]
  Coronary flow rate: 3 ± 1 mL/min/g
  Heart rate: 197 ± 36 beats/min
  Left ventricle developed pressure: 64 ± 11 mmHg
[1]; [10]
  Coronary flow rate: 4 ± 1 mL/min/g
  Heart rate: 204 ± 41 beats/min
  Left ventricle developed pressure: 62 ± 8 mmHg
[1]; [11]
  Coronary flow rate: 4 ± 1 mL/min/g
  Heart rate: 183 ± 16 beats/min
  Left ventricle developed pressure: 64 ± 10 mmHg
[1]; Tpo 1.0 ng/ml
  Recovery of coronary flow rate: unaffected
[1]; Tpo 1.0 ng/ml, untreated hearts 94±6%
  Recovery of heart rate: 85±7 % of pre-ischemic values
[1]; [12]
  Optimal concentration of Tpo that afforded maximum reduction of infarct size: 1.0 ng/mL
  Optimal concentration that afforded maximal recovery of post-ischemic ventricular developed pressure: 1.0 ng/mL
[1]; bell-shaped concentration-dependent, Tpo 0.01-10.0 ng/ml
  Recovery of left ventricular developed pressure following ischemia and reperfusion: increased
[2]; [13]
  Hematocrit: remained unchanged; also recorded: did not result in an increased
  Platelet count: remained unchanged; also recorded: did not result in an increased
[2]; [14]
  Hematocrit: no effect
  Platelet count: no effect
[3]; Tpo 1.0 ng/ml 15 min before 25 min global ischemia, 3 hours reperfusion, ischemia control 3.56±0.75%, non-ischemic 1.91±0.54%
  TUNEL-positive cells: 1.94±0.55%
[3]; Tpo 1.0 ng/ml prior to ischemia
  Apoptosis following ischemia and reperfusion: reduced
